The text below walks through data of paper PMC13124246 (European journal of medicinal chemistry, 2022).

SMILES strings stand for the structures. Counter-ions that a name gives are not always drawn.

Series [1] deals with Mouse myoblasts cell line C2C12. The experiment in a line: Host cell cytotoxicity. The settings on record: mouse myoblasts vs T. cruzi, compounds tested up to 10 μM. The format is cell-based.
The next series deals with cruzain or TbrCatL. The series is described as follows: Screening of the Krake et al. compound set against cruzain and TbrCatL. The settings on record: 100 μM. The format is biochemical.
Series [2] has as its target T1, TbrCatL (Trypanosoma brucei rhodesiense, UniProt Q95PM0). It is filed as biochemical, T. brucei.
The target of another series is cruzain (Trypanosoma cruzi, UniProt P25779). The series is described as follows: Cruzain enzymatic inhibition assay. The format is biochemical. The settings on record: for competitive behavior against cruzain: compound at 1 and 0.25 μM, substrate 0.156–10 μM.
The subject of series [3] is T. cruzi Y strain parasites. The settings on record: in vitro; cited from earlier work.
Series [4] has as its target T1, TbrCatL. The settings on record: read-out: IC50 TbrCatL; cited from earlier work.
For a further series, the system named is macrophages. The settings on record: cited from earlier work.
The next series deals with cathepsins S (human). The settings on record: human enzyme; cited from earlier work.
In a further series the test system is cathepsins B (rat). The conditions noted are these: rat enzyme; cited from earlier work.

cruzain, sequence (P25779 123-337 limits assumed): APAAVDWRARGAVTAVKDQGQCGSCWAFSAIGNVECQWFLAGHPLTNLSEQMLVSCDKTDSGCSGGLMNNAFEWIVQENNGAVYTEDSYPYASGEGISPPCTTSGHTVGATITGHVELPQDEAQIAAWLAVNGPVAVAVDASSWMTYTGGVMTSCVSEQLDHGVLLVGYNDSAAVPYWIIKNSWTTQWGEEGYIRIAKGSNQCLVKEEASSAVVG

Regarding `O=C(Cn1ccnc1[N+](=O)[O-])NCc1ccccc1` [Benznidazole], the “SI: selectivity index determined as CC50/EC50” value (“SI: selectivity index” below) in [1] is reported as greater than 9.

As to `CN(C)CCCNCc1ccc(-c2ccc(Cl)cc2Cl)o1` [Compound 9], the “average inhibition against cruzain or TbrCatL” value in the series with cruzain or TbrCatL is recorded as “greater than 70%”.

Consider `CN(C)CCCNCc1ccc(-c2ccc(Br)cc2)o1` [Compound 12], for which the “average inhibition against cruzain or TbrCatL” value in the series on cruzain or TbrCatL is recorded as “greater than 70%”.

With `Clc1cc(Br)ccc1-c1ccc(CNCCN2CCOCC2)o1` [Compound 39, N-((5-(4-bromo-2-chlorophenyl)furan-2-yl)methyl)-2-morpholinoethan-1-amine dihydrochloride], the “SI: selectivity index” value in series [1] is given as greater than 17.

Take `N/C(S)=N/N=C/c1ccc(-c2ccc(Cl)cc2)o1` [Compound 44, 2-((5-(4-chlorophenyl)furan-2-yl)methylene)hydrazine-1-carbothioamide]: on TbrCatL [2], the “effect of 0.1% Triton X-100 on IC50 against TbrCatL” value is recorded as “reduced the compounds’ potencies”. The “SI: selectivity index” value in [1] is reported as greater than 18. Further, the “IC50 against cruzain relative to IC50 against TbrCatL (fold higher)” value on cruzain (Table 2 values) was “up to 25 fold”. Also, on cruzain, the “competitive behavior against cruzain” value is “did not observe competitive behavior”.

Consider `NC(=S)N/N=C/c1ccc(-c2ccc(Br)cc2Cl)o1` [Compound 45, 2-((5-(4-bromo-2-chlorophenyl)furan-2-yl)methylene)hydrazine-1-carbothioamide], for which the “effect of 0.1% Triton X-100 on IC50 against TbrCatL” value at TbrCatL [2] was “reduced the compounds’ potencies”. The “SI: selectivity index” value in [1] is reported as greater than 370. On cruzain, the “competitive behavior against cruzain” value was “did not observe competitive behavior”.

Take `Clc1cc(Br)ccc1-c1ccc(CNCC2CCNCC2)o1` [MB12, 1-(5-(4-bromo-2-chlorophenyl)furan-2-yl)-N-(piperidin-4-ylmethyl)methanamine]: in series [3], the “replication of T. cruzi Y strain parasites and release from macrophages” value is given as “decreased the replication”. The IC50 at TbrCatL [4] was 50 µM. In addition, the “cytotoxicity by lactate dehydrogenase release” value with macrophages was “no significant cytotoxicity”. The “inhibition of cathepsin S” value in the series on cathepsins S (human) was “did not inhibit”. Further, the “inhibition of cathepsin B” value in the series on cathepsins B (rat) is listed as “did not inhibit”.

As a reminder, the IC50 is the midpoint of a concentration-inhibition curve.
